Assay results: PMC5047629, “Synthesis, Pharmacological Profile and Docking Studies of New Sulfonamides Designed as Phosphodiesterase-4 Inhibitors” (PLoS ONE, 2016)

What was measured:
PDE4B = target: T1, PDE4B (Homo sapiens, UniProt Q07343); assay: PDE4B inhibition, IMAP fluorescence polarization protocol; format: biochemical
T1 construct: purchased MDS PHARMA
Description: The enzymatic reactions were carried at room temperature in a 96-well black plate by co-incubating 25 μL of 200 nM FAM-cAMP (R7513), 5 μL of putative inhibitory compounds and 20 μL of the PDE4 isoform dissolved in assay buffer (R7364) for 1 h. All enzymes were obtained from human recombinant sources (MDS PHARMA), whereas the other reagents were purchased from Molecular Devices. […] PDE4 inhibitors were dissolved in dimethyl sulfoxide (DMSO) at a final concentration of 0.1%.
The inhibitory activities of the new sulfonamide derivatives were evaluated for their selectivity against the four isoforms of human PDE4, i.e. PDE4A, PDE4B, PDE4C, and PDE4D, using an IMAP-FP protocol.

PDEs5-11 = assay: PDE selectivity profile evaluated by CEREP; format: biochemical, human; details: 10 μM; data not shown
Description: The selectivity profile of compound 6a (LASSBio-448) toward the human PDE1, PDE2, PDE5-PDE8, PDE10 and PDE11 was evaluated by CEREP.

PDE3 = PDE3 activity inhibition; format: biochemical; details: 10 μM
guinea-pig trachea = assay: Tracheal smooth muscle contraction in vitro induced by carbachol; details: 100 μM, S1A Fig
Description: Tracheas from guinea pigs were obtained and prepared as described previously. An initial tension of 1 g was applied to the tracheas for 60 min to obtain a constant resting tension. To confirm the viability of the preparation, the response to carbachol (2.5 μM) was recorded. After washout of carbachol and re-establishement of the baseline resting tension, tissues were preincubated with LASSBio-448 (100 μM) or vehicle (DMSO 0.1%) 15 min before re-exposed to cumulative addition of carbachol (10^−8–10^−4 M). The tracheal rings were pretreated 10 min before application of LASSBio-448 with 100 μM SQ22536 (adenylyl cyclase inhibitor). Stimulation-induced isometric contractile responses were measured with a force-displacement transducer (Ugo Basile, Comerio, Italy) and the readout used to assess contractility was obtained by isolated organ data acquisition software (Proto 5; Letica Scientific Instruments, Barcelona, Spain). Contractile responses were expressed as a percentage of the maximal contraction induced by 2.5 μM carbachol.

[1] = tested on: guinea-pig tracheal smooth muscle cells; assay: cAMP intracellular levels in airway smooth muscle cells (radioimmunoassay); format: cell-based; details: 100 μM, S1B Fig
Description: Intracellular cAMP concentrations were assayed in primary cultured guinea-pig tracheal smooth muscle cells as reported. Briefly, smooth muscle cells obtained from guinea pig tracheas were cultured in DMEM containing 10% fetal bovine serum, 100 units/ml of penicillin, […] of streptomycin and 2 mM of glutamine for 3 to 7 days. After the third cell splitting, 10^6 cells/well were grown in 24-well plates. At confluence, smooth muscle cells were washed with PBS and incubated with 100 μM LASSBio-448 or forskolin (adenylyl cyclase activator), in the presence or absence of 100 μM SQ22536 (adenylyl cyclase inhibitor) for 30 min. Lysed cells were collected and the intracellular cAMP was evaluated by means of radioimmunoassay (TRK 432–Cyclic AMP^[3H] Biotrak assay system—Amersham Pharmacia Biotech, Buckinghamshire, England) following manufacturer’s guidelines.

A/J mice [2] = assay: Short-term murine model of asthma (OVA provocations at days 19 and 20), prophylactic treatment; format: in vivo; details: 100 mg/Kg oral, 1 h before each OVA challenge, 24 h after last provocation
Description: Sensitization was performed by means of a subcutaneous injection of 50 μg ovalbumin (OVA) (grade V; Sigma-Aldrich, St. Louis, MO) adsorbed to 5 mg of Al(OH)3 in 0.2 mL of sterile 0.9% NaCl (saline) at days 0 and 14. Intranasal OVA provocations (25 μg /25 μL saline) were performed at 19 and 20 days post-sensitization under isofluorane volatile anaesthesia (Cristalia, São Paulo, Brazil). Alternatively, sensitization as described above were done at days 0 and 7, while the OVA provocations were carried out at days 14, 21, 28 and 35 [39]. Negative control groups were represented by sensitized mice in which allergen was replaced by saline as a challenge. […]
The EPO activity present in lung tissue was determined with a colorimetric assay as described by Strath et al. (1985), with minor modifications. […] The optical density reading was performed on the SpectraMax M5 spectrophotometer (Molecular Devices) at a wavelength of 492 nm.
Twenty-four hours after the last challenge the animals were killed by an over dose of thiopental (200 mg/kg, i.p.) and bronchoalveolar lavage (BAL) was performed three times by intratracheal instillation of 500 μL of PBS and EDTA (10 mM) through a trachea cannula and gently aspirating the fluid. […] Total leukocyte numbers were measured in Neubauer chambers using light microcopy after diluting the samples in Türk solution (2% acetic acid). […]

A/J mice [3] = assay: Duration of xylazine/ketamine anesthesia (behavioral correlate of emesis); format: in vivo
Description: This assessment was carried out as previously reported. […] The animals were placed in dorsal position and their spontaneous return to the prone position was used as an endpoint to determine anesthesia duration.

T1 sequence (Q07343 whole entry): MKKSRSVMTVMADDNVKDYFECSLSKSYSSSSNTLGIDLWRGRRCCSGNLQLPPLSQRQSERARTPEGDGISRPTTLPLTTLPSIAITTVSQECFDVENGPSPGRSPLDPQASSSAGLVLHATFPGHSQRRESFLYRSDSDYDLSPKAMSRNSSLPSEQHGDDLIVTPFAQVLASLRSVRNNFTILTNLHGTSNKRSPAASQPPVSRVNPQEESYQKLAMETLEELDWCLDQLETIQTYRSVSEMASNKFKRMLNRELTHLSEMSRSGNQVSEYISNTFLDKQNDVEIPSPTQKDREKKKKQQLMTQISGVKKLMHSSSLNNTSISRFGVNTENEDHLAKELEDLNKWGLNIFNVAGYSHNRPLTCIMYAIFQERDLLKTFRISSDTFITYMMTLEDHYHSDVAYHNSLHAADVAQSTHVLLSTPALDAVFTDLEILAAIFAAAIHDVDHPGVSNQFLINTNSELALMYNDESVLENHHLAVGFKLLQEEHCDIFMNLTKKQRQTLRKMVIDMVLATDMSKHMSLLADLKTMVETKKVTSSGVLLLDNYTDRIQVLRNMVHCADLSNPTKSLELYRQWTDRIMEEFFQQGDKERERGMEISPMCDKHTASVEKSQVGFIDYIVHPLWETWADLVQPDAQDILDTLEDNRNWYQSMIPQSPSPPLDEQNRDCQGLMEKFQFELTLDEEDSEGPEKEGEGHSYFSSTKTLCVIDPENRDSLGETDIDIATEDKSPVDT

- PDE4B1 inhibition (PDE4B; 1 μM, mean ± SEM, 3 experiments): able to inhibit
- inhibition at 1 µM (PDE4B; 1 μM, mean ± SEM, 3 experiments, read-out: PDE4B1 inhibition): 31 ± 1.1%
- IC50 (PDE4B; recombinant enzyme, mean ± SEM of three measurements): 1400 ± 90 nM
Structure (SMILES): COc1ccc(CCNS(=O)(=O)c2cc3c(cc2C)OCO3)cc1OC [6a (LASSBio-448), N-(3,4-dimethoxyphenethyl)-6-methylbenzo[d][1, 3]dioxole-5-sulfonamide]
- inhibition of PDEs5-11 (PDEs5-11): unable to inhibit
- inhibition of PDE3 activity (PDE3): failed to inhibit
- tracheal contraction induced by cumulative carbachol (guinea-pig trachea): inhibited
- relaxant effect after pre-treatment with SQ22,536 (guinea-pig trachea; pre-treatment with 100 μM SQ22,536 (adenylyl cyclase inhibitor)): clearly abrogated
- cAMP intracellular levels in cultured tracheal smooth muscle cells ([1]; levels comparable to forskolin): up-regulated
- cAMP elevating effect after pre-treatment with SQ22,536 ([1]; pre-treatment with 100 μM SQ22,536): clearly abrogated
- eosinophil levels in bronchoalveolar lavage fluid (A/J mice [2]; Fig 4A): clearly prevented the up-regulation
- eosinophil levels in lung tissue homogenates (EPO colorimetric assay) (A/J mice [2]; Fig 4B): clearly prevented the up-regulation
- reduction of sleep time (duration of xylazine/ketamine anesthesia) (A/J mice [3]; 11 μmol/Kg oral): 24.1%
- reduction of sleep time (duration of xylazine/ketamine anesthesia) (A/J mice [3]; 27 μmol/Kg oral): 26.6%
- reduction of sleep time (duration of xylazine/ketamine anesthesia) (A/J mice [3]; 80 μmol/Kg oral): 35.5%
- fold less pro-emetic than rolipram (A/J mice [3]; vs rolipram): at least 7 fold
